Earlier results on ten compounds are cited in patent US20230158012A1, “ORAL LIQUID FORMULATIONS OF LENVATINIB” (SHILPA MEDICARE LIMITED, priority 2020, published 2023).

For the series the following is noted: 5% w/w aqueous solution or suspension.
`O=C1O[C@H](CO)[C@@H](O)[C@H](O)[C@H]1O` [Gluconolactone]: the pH value was 2.40. As for `O=P([O-])([O-])O.[K+].[K+]` [dipotassium hydrogenphosphate], the pH value is given as 9.11. Regarding `O=P([O-])([O-])O.[Na+].[Na+]` [disodium hydrogenphosphate], the pH value is reported as 9.26. As to `NCC(=O)O` [glycine], the pH value is on record as 6.17. For the compound `[O]=[Mg]` [magnesium oxide], the pH value is given as 10.63. With `CC(=O)[O-].[Na+]` [sodium acetate], the pH value is 8.46.

On to `O=C([O-])[O-].[Na+].[Na+]` [sodium carbonate], for which the pH value is reported as 11.45. As to `O=C([O-])CC(O)(CC(=O)[O-])C(=O)[O-].[Na+].[Na+].[Na+]` [sodium citrate], the pH value is 8.22. In the case of `O=C([O-])O.[Na+]` [sodium hydrogencarbonate], the pH value is 8.15. Regarding `[Na+].[OH-]` [sodium hydroxide], the pH value was 13.56.
